Results reported in patent US20170253607A1, “LONG-ACTING HIV PROTEASE INHIBITOR” (Shionogi & Co., Ltd., priority 2014, published 2017).

What was measured:
HIV-1 PR = HIV-1 PR (Human immunodeficiency virus type 1 group M subtype B, UniProt P04585); assay: HIV-protease inhibitory activity assay (FRET peptide substrate); format: biochemical; conditions: Test Example 1
Summary of the method: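 HIV-1 PR (0.83 ng) preincubated with compounds 20 min at room temperature in 0.1 mol/L NaAc, 0.5 mol/L NaCl, 1 mmol/L EDTA, 1 mmol/L DTT, 0.05% Tween 20, pH 4.8. Cleavage of HiLyte Fluor 488/QXL 520 FRET peptide (2 μmol/L) read after 60 minutes at 485/535 nm; IC50 from four-parameter logistic fit.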

[1] = Protein binding test (equilibrium dialysis, unbound ratio fu in serum); format: in vitro ADME; conditions: rat serum, equilibrium dialysis 24 hours, 37° C., 2 μg/mL
Procedure: Assay condition: Evaluation method; Equilibrium dialysis method, Reaction time; 24 hours, Reaction temperature; 37° C., Assay concentration; 2 μg/mL A solution of the compound was added to each serum and mixed to prepare the serum samples with above concentration. The serum sample was put into one side of an equilibrium dialysis apparatus with dialysis membrane and phosphate buffered saline (PBS) was also put to another side of the apparatus. The apparatus was incubated at 37° C. for 24 hours. After incubation, the serum and PBS samples were collected and the compound concentrations in both samples were measured by LC/MS/MS. Fu was calculated by dividing the concentration in PBS by the concentration in the serum.

[2] = Evaluation of total body clearance (CLtot), intravenous administration; format: in vivo, Sprague-Dawley (SD); conditions: rat (SD), intravenous administration 0.5-10 mg/kg; CLtot = dose/AUC
Summary of the method: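 Plasma levels quantified by LC/MS/MS after intravenous tail-vein dosing (0.5-10 mg/kg, compound-dependent; n=2-3). AUC from pharmacokinetic analysis; total clearance calculated as dose/AUC.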

Row | Structure (SMILES) | IC50 (HIV-1 PR) [nM] | rat_fu [1] [%] | rat_CLt [2] [mL/min/kg]
1 | CC(C)CN(CC(O)C(Cc1ccc(CCc2sc3c(c2C(=O)O)CC(C)(C)CC3)cc1)NC(=O)OC1COC2(C)OCCC12)S(=O)(=O)c1ccc2c(c1)OCO2 (stereo not drawn) [Compound I-106] | 2.57 | <0.1 | 3.49
2 | COc1ccc(S(=O)(=O)N(CC(C)C)CC(O)C(Cc2ccc(OCc3ccccc3-c3sc4c(c3C(=O)O)CC(C)(C)CC4(C)C)cc2)NC(=O)OC2COC3(C)OCCC23)cc1 (stereo not drawn) [Compound I-113] | 1.84 | <0.1 | 1.18
3 | CC(C)CN(CC(O)C(Cc1ccc(OCc2ccccc2-c2sc3c(c2C(=O)O)CC(C)(C)CC3(C)C)cc1)NC(=O)OC1COC2(C)OCCC12)S(=O)(=O)c1ccc2ncsc2c1 (stereo not drawn) [Compound I-119] | 1.23 | <0.1 | 2.29
4 | CC(C)CN(CC(O)C(Cc1ccc(OCc2ccccc2-c2sc3c(c2C(=O)O)CC(C)(C)CC3)cc1)NC(=O)OC1COC2(C)OCCC12)S(=O)(=O)c1ccc2nc(O)sc2c1 (stereo not drawn) [Compound I-131] | 2.12 | <0.1 | 2.27
5 | CC(C)CN(CC(O)C(Cc1ccc(OCc2ccccc2-c2sc3c(c2C(=O)O)CC(C)(C)CC3)cc1)NC(=O)OC1COC2(C)OCCC12)S(=O)(=O)c1ccc2c(c1)OCO2 (stereo not drawn) [Compound I-132] | 2.66 | <0.1 | 0.376
6 | COc1ccc(S(=O)(=O)N(CC(C)C)CC(O)C(Cc2ccc(Oc3ccc(C)c(-c4sc5c(c4C(=O)O)CC(C)(C)CC5)c3)cc2)NC(=O)OC2COC3(C)OCCC23)cc1 (stereo not drawn) [Compound I-134] | 2.04 | <0.1 | 3.92
7 | Cc1cc(Oc2ccc(CC(NC(=O)OC3COC4(C)OCCC34)C(O)CN(CC(C)C)S(=O)(=O)c3ccc4ncsc4c3)cc2)ccc1-c1sc2c(c1C(=O)O)CC(C)(C)CC2 (stereo not drawn) [Compound I-138] | 2.66 | <0.1 | 1.6
8 | COc1ccc(S(=O)(=O)N(CC2CCCC2)CC(O)C(Cc2ccc(OCc3ccccc3-n3nc4c(c3C(=O)O)CC(C)(C)CC4)cc2)NC(=O)OC2COC3(C)OCCC23)cc1 (stereo not drawn) [Compound I-139] | 0.78 | <0.1 | 0.286
9 | COc1ccc(S(=O)(=O)N(CC2CCCC2)CC(O)C(Cc2ccc(OCc3ccccc3-n3nc4c(c3C(=O)O)CC(C(F)(F)F)CC4)cc2)NC(=O)OC2COC3(C)OCCC23)cc1 (stereo not drawn) [Compound I-140] | 1.42 | <0.1 | 0.111
10 | COc1ccc(S(=O)(=O)N(CC2CCCC2)CC(O)C(Cc2ccc(OCc3ccccc3-n3nc4c(c3C(=O)O)CC(C(C)(C)C)CC4)cc2)NC(=O)OC2COC3(C)OCCC23)cc1 (stereo not drawn) [Compound I-145] | 0.81 | <0.1 | 1.29
11 | COc1ccc(S(=O)(=O)N(CC2CCCC2)CC(O)C(Cc2ccc(OCc3ccccc3-n3nc4c(c3C(=O)O)CC3(CCCC3)CC4)cc2)NC(=O)OC2COC3(C)OCCC23)cc1 (stereo not drawn) [Compound I-146] | 0.92 | <0.1 | 0.584
12 | CC1(C)CCc2sc(-c3ccccc3COc3ccc(CC(NC(=O)OC4COC5(C)OCCC45)C(O)CN(CC(F)F)S(=O)(=O)c4ccc5ncsc5c4)cc3)c(C(=O)O)c2C1 (stereo not drawn) [Compound I-147] | 1.01 | <0.1 | 1.68
13 | COc1ccc(S(=O)(=O)N(CC2CCC(=O)N2)CC(O)C(Cc2ccc(OCc3ccccc3-c3sc4c(c3C(=O)O)CC(C)(C)CC4)cc2)NC(=O)OC2COC3(C)OCCC23)cc1 (stereo not drawn) [Compound I-148] | 1.16 | <0.1 | 2.5
14 | CC1(C)CCc2sc(-c3ccc(OCCN(CC(O)C(Cc4ccccc4)NC(=O)OC4COC5(C)OCCC45)S(=O)(=O)c4ccc5ncsc5c4)cc3)c(C(=O)O)c2C1 (stereo not drawn) [Compound I-165] | 3.21 | <0.1 | 1.08
